Details: 101.33 kPa, Liquid, Vibrating tube method

CC(O)CN (configuration not stated) [1-amino-2-propanol]
Details	mass density [kg/m3]
278.16 K	972.17
278.65 K	971.79
279.14 K	971.4
279.65 K	971.01
280.15 K	970.62
280.65 K	970.23
281.15 K	969.84
281.65 K	969.45
282.15 K	969.05
282.65 K	968.66
283.15 K	968.27
283.65 K	967.88
284.15 K	967.49
284.65 K	967.1
285.15 K	966.7
285.65 K	966.31
286.15 K	965.92
286.64 K	965.52
287.15 K	965.13
287.65 K	964.73
288.15 K	964.34
288.65 K	963.95
289.15 K	963.55
289.65 K	963.15
290.15 K	962.76
290.65 K	962.36
291.15 K	961.97
291.64 K	961.57
292.15 K	961.18
292.65 K	960.78
293.15 K	960.38
293.64 K	959.99
294.14 K	959.59
294.64 K	959.19
295.15 K	958.79
295.65 K	958.39
296.15 K	957.99
296.65 K	957.6
297.15 K	957.2
297.64 K	956.8
298.15 K	956.4
298.65 K	956
299.15 K	955.6
299.64 K	955.2
300.14 K	954.8
300.64 K	954.4
301.15 K	954
301.65 K	953.59
302.14 K	953.2
302.65 K	952.79
303.15 K	952.39
303.64 K	951.99
304.15 K	951.59
304.65 K	951.18
305.15 K	950.78
305.64 K	950.38
306.15 K	949.98
306.65 K	949.57
307.15 K	949.17
307.64 K	948.77
308.15 K	948.36
308.65 K	947.95
309.15 K	947.55
309.65 K	947.14
310.15 K	946.74
310.65 K	946.33
311.15 K	945.92
311.64 K	945.52
312.15 K	945.11
312.64 K	944.7
313.15 K	944.3
313.65 K	943.89
314.15 K	943.48
314.65 K	943.07
315.15 K	942.66
315.65 K	942.25
316.15 K	941.84
316.65 K	941.43
317.15 K	941.03
317.65 K	940.61
318.15 K	940.2
318.65 K	939.79
319.14 K	939.38
319.65 K	938.96
320.15 K	938.55
320.64 K	938.14
321.15 K	937.72
321.65 K	937.31
322.15 K	936.9
322.65 K	936.49
323.15 K	936.08
323.65 K	935.66
324.15 K	935.25
324.65 K	934.83
325.15 K	934.42
325.65 K	934.01
326.15 K	933.59
326.65 K	933.18
327.15 K	932.76
327.65 K	932.35
328.15 K	931.93
328.66 K	931.51
329.15 K	931.09
329.66 K	930.68
330.16 K	930.26
330.66 K	929.84
331.15 K	929.42
331.66 K	929
332.16 K	928.58
332.66 K	928.16
333.16 K	927.74
333.66 K	927.31
334.16 K	926.89
334.66 K	926.47
335.16 K	926.05
335.66 K	925.63
336.16 K	925.2
336.66 K	924.78
337.16 K	924.36
337.66 K	923.93
338.16 K	923.5
338.66 K	923.08
339.16 K	922.65
339.66 K	922.23
340.16 K	921.8
340.66 K	921.38
341.16 K	920.95
341.66 K	920.52
342.16 K	920.09
342.66 K	919.66
343.16 K	919.23
343.66 K	918.8
344.16 K	918.37
344.66 K	917.94
345.16 K	917.51
345.66 K	917.08
346.16 K	916.65
346.66 K	916.21
347.16 K	915.78
347.66 K	915.35
348.16 K	914.92
348.66 K	914.48
349.16 K	914.05
349.66 K	913.61
350.16 K	913.18
350.66 K	912.74
351.16 K	912.3
351.66 K	911.87
352.16 K	911.43
352.66 K	910.99
353.16 K	910.55
353.66 K	910.12
354.16 K	909.68
354.66 K	909.23
355.16 K	908.8
355.66 K	908.35
356.16 K	907.91
356.66 K	907.47
357.16 K	907.03
357.66 K	906.59
358.16 K	906.14
358.66 K	905.7
359.16 K	905.26
359.66 K	904.81
360.16 K	904.36
360.65 K	903.92
361.16 K	903.47
361.66 K	903.03
362.16 K	902.58
362.66 K	902.13
363.15 K	901.68
363.16 K	901.69

— the NIST ThermoML archive (doi:10.1016/j.tca.2005.10.007)
